Experimental findings from ChEMBL document CHEMBL5291721, “A preclinical secondary pharmacology resource illuminates target-adverse drug reaction associations of marketed drugs” (Nat Commun, 2023) are described below.

As usually defined, the AC50 is the midpoint of the concentration-response curve, whichever way the signal moves.

The target in experiment [1] is T1, Alpha-1A adrenergic receptor (Homo sapiens, UniProt P35348).
T1 sequence (P35348 whole entry): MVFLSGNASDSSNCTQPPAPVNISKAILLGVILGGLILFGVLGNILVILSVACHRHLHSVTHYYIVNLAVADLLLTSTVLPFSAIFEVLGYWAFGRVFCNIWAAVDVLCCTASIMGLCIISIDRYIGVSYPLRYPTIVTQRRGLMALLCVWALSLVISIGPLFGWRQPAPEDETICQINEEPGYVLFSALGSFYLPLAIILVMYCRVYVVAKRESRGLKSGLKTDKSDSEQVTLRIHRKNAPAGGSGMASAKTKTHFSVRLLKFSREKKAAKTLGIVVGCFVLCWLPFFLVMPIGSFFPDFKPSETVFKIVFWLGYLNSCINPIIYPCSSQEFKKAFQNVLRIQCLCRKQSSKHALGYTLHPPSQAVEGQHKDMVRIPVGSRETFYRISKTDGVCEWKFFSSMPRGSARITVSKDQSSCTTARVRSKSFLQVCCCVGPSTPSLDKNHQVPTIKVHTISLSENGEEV
The class given is functional, cell-based.

The next experiment deals with T2, Adenosine receptor A3 (Homo sapiens, UniProt P0DMS8).
T2 sequence (P0DMS8 whole entry): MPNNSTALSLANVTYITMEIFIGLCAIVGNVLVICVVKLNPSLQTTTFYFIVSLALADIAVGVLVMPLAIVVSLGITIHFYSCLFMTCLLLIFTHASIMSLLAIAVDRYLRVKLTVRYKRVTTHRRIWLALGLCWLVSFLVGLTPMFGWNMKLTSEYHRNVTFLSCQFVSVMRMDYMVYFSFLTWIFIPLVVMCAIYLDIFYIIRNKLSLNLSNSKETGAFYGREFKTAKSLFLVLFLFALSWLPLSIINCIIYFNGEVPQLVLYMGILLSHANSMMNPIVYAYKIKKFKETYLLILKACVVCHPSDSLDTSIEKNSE

For experiment [2], the target named is T3, Amine oxidase [flavin-containing] A (Homo sapiens, UniProt P21397).
T3 sequence (P21397 whole entry): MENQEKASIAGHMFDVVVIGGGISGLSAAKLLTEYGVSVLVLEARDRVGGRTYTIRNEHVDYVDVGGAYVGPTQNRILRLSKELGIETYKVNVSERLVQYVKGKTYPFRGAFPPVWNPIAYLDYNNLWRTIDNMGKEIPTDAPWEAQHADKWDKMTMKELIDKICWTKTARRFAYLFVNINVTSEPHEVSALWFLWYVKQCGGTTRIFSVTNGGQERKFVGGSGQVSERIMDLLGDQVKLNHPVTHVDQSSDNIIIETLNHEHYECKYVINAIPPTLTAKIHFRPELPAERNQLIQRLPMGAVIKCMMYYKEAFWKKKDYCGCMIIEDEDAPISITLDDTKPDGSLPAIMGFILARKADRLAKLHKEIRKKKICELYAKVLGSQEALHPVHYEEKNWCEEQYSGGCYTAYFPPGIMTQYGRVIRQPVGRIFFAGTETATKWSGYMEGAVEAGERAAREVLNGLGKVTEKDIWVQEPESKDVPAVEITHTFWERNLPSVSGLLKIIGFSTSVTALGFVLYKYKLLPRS
It is filed as functional.

In experiment [3] the target is Growth hormone secretagogue receptor type 1 (Homo sapiens, UniProt Q92847).
Sequence of Growth hormone secretagogue receptor type 1 (Q92847 whole entry): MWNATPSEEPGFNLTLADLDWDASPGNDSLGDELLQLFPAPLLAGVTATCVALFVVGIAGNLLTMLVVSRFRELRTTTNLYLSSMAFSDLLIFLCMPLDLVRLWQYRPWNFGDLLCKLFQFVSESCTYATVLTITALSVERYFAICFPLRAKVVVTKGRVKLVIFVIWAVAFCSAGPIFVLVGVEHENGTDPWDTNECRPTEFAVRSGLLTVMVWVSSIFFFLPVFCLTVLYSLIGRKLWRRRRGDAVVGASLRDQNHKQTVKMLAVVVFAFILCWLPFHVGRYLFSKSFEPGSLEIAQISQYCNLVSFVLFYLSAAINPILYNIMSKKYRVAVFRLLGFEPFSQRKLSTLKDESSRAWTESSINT
For another experiment, the target named is D(3) dopamine receptor (Homo sapiens, UniProt P35462).
Sequence of D(3) dopamine receptor (P35462 whole entry): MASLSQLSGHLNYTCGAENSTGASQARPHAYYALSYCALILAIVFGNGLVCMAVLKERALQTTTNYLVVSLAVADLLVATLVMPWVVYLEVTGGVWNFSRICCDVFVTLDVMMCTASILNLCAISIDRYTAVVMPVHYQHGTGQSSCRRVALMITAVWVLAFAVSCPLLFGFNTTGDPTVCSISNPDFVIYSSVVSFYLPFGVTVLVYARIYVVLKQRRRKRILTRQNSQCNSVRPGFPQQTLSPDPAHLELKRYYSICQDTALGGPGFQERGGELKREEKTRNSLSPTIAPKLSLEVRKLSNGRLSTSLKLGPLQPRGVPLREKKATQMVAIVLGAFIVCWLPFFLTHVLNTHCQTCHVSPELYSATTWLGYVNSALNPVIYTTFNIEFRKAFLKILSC
Experiment [4] deals with Glutamate receptor ionotropic, NMDA 1 (Rattus norvegicus, UniProt P35439).
Experiment [5] concerns the target T4, Muscarinic acetylcholine receptor M2 (Homo sapiens, UniProt P08172).
T4 sequence (P08172 whole entry): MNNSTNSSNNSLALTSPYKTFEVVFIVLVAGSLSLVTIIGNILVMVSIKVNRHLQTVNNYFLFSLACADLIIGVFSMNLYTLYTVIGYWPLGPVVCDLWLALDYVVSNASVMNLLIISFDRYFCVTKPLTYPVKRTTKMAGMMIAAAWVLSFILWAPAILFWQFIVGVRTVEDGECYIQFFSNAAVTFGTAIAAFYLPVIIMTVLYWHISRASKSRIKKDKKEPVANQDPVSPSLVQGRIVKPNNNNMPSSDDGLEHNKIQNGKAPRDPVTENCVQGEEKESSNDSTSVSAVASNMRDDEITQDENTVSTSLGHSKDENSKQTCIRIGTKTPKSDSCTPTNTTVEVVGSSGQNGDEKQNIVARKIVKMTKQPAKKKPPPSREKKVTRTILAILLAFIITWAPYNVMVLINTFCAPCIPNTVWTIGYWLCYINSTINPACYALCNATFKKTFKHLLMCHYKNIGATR
The class given is functional, cell-based.

For experiment [6], the target named is T5, Type-1 angiotensin II receptor (Homo sapiens, UniProt P30556).
T5 sequence (P30556 whole entry): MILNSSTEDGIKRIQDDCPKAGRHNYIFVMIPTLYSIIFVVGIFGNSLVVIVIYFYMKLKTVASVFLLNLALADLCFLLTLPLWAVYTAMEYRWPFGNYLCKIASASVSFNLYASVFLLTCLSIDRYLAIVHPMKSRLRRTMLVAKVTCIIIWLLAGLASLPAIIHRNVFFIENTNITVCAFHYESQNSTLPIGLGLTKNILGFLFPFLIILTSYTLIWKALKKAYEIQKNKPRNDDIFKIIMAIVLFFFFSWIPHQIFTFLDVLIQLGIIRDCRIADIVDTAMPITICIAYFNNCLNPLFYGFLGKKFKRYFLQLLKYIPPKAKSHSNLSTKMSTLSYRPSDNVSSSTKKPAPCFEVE

The target of another experiment is Cannabinoid receptor 1 (Homo sapiens, UniProt P21554). It is filed as functional, cell-based.
Sequence of Cannabinoid receptor 1 (P21554 whole entry): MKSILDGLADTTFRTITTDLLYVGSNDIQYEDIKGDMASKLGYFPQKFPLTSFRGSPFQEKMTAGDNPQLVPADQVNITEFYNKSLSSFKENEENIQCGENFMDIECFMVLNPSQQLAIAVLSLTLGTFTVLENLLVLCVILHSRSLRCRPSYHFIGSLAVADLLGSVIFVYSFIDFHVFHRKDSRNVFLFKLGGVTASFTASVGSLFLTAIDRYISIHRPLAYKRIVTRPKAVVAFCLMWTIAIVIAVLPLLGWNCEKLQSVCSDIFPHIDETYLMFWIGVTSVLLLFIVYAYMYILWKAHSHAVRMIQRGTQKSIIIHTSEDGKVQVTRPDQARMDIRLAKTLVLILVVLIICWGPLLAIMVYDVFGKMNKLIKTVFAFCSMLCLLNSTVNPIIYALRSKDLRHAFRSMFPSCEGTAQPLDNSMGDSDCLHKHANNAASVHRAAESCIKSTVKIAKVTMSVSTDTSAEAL
Another experiment addresses Histamine H1 receptor (Homo sapiens, UniProt P35367).
The target in experiment [7] is T6, Muscarinic acetylcholine receptor M1 (Homo sapiens, UniProt P11229).
T6 sequence (P11229 whole entry): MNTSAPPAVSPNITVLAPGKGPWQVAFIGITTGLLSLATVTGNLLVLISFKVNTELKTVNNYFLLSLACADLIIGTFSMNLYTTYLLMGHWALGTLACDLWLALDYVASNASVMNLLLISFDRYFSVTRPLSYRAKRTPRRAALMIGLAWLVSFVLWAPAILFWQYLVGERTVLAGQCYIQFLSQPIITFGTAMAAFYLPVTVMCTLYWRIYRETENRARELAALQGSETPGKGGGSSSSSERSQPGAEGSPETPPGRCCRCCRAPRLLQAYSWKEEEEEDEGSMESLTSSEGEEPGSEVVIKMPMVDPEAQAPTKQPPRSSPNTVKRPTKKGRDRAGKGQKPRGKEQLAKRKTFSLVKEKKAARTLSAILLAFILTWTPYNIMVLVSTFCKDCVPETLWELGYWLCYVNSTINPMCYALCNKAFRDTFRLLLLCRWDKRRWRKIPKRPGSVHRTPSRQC
It is filed as functional.

Bounds are passed on as bounds.
Further: assay procedure not described here.

Sequence of Histamine H1 receptor (P35367 whole entry): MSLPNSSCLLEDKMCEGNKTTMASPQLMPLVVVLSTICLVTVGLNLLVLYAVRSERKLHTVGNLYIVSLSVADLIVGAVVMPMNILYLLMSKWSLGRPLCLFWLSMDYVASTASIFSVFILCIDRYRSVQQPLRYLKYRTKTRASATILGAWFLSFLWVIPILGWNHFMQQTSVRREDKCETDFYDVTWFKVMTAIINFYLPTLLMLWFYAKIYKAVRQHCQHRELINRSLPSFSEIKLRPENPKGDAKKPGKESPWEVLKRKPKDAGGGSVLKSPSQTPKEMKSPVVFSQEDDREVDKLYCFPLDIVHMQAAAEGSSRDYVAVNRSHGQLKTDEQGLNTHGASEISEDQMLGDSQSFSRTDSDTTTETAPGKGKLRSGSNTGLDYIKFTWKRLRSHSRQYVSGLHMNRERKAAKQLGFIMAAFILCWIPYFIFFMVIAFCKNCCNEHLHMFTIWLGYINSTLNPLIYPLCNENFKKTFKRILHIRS

In the case of `N=C(N)NC(=O)c1nc(Cl)c(N)nc1N` [AMILORIDE], the AC50 is over 30 µM in experiment [1]; over 30 µM on Adenosine receptor A3; 4.41 µM in experiment [2]; over 30 µM in experiment [3]; over 30 µM on D(3) dopamine receptor; over 30 µM in experiment [4]. For the same compound, the AC50 in experiment [5] and in experiment [6] was over 30 µM each time.

`CC(C)(C)NCC(O)COc1ccccc1C#N` (centres undefined) [BUNITROLOL]: the concentration at half-maximal activity (AC50) is over 30 µM in experiment [1]; 14 µM in experiment [2]; over 30 µM on Cannabinoid receptor 1; over 30 µM at Histamine H1 receptor; over 30 µM in experiment [7]; over 30 µM at D(3) dopamine receptor. In addition, the AC50 in experiment [4] and in experiment [5] was over 30 µM each time.

On to `CN(C)CCC(O)(c1ccccc1)c1ccccc1Cl` (centres undefined) [CHLOPHEDIANOL], for which the half-maximal activity concentration (AC50) at Adenosine receptor A3 is over 10 µM; in experiment [2], over 10 µM; at Cannabinoid receptor 1, over 30 µM; on Histamine H1 receptor, over 10 µM; in experiment [7] it was over 10 µM; in [3] it was over 10 µM. The AC50 is over 30 µM on D(3) dopamine receptor, over 10 µM in experiment [4], over 10 µM in [5] and over 10 µM in experiment [6].

Turning to `COc1cccc2c1C(=O)c1c(O)c3c(c(O)c1C2=O)C[C@@](O)(C(=O)CO)C[C@@H]3O[C@H]1C[C@H](N)[C@H](O)[C@H](C)O1` [DOXORUBICIN], the half-maximal activity concentration (AC50) in experiment [1] is 16 µM; on Adenosine receptor A3, over 30 µM; in [2] it was over 30 µM; at Cannabinoid receptor 1, over 30 µM; in [3] it was over 30 µM; on D(3) dopamine receptor it was over 30 µM. The AC50 in experiment [4] is over 10 µM; in experiment [5], over 10 µM; in experiment [6], over 30 µM.

On to `C[C@]12CCC(=O)C=C1[C@@H]1C[C@@H]1[C@H]1[C@@H]3[C@@H]4C[C@@H]4[C@@]4(CCC(=O)O4)[C@@]3(C)CC[C@@H]12` [DROSPIRENONE], for which the AC50 (in [1]; on Adenosine receptor A3; in experiment [2]; on Histamine H1 receptor; in experiment [7]; in experiment [3]) was over 30 µM each time. Also, the AC50 at D(3) dopamine receptor was over 30 µM; in [4], over 30 µM; in experiment [5], over 10 µM; in [6] it was over 30 µM.

In the case of `CCn1c(=O)c2c(nc(/C=C/c3ccc(OC)c(OC)c3)n2C)n(CC)c1=O` [ISTRADEFYLLINE], the half-maximal activity concentration (AC50) was over 30 µM in experiment [1]; 24 µM on Adenosine receptor A3; over 30 µM in experiment [2]; over 30 µM on Histamine H1 receptor; over 30 µM in [7]; over 30 µM in [5].

For `COc1ccc(C(=O)c2ccccc2)c(O)c1` [OXYBENZONE], the AC50 in experiment [1] was over 30 µM; in experiment [2] it was over 30 µM; at Cannabinoid receptor 1 it was over 30 µM; at Histamine H1 receptor, 17 µM; in experiment [7] it was over 30 µM; on D(3) dopamine receptor it was over 30 µM. Moreover, the AC50 in experiment [4] and in experiment [5] was over 30 µM each time.

In the case of `C[C@]12C=CC(=O)C=C1CC[C@@H]1[C@@H]2[C@@H](O)C[C@@]2(C)[C@H]1CC[C@]2(O)C(=O)CO` [PREDNISOLONE], the AC50 in experiment [1] is over 30 µM; on Adenosine receptor A3 it was over 30 µM; in experiment [2] it was over 10 µM; at Cannabinoid receptor 1 it was over 30 µM; in [3] it was over 30 µM; on D(3) dopamine receptor, over 30 µM. Moreover, the concentration at half-maximal activity (AC50) in experiment [4] was over 10 µM; in [5] it was over 10 µM; in [6], over 30 µM.

Turning to `CCC(=O)c1ccc2c(c1)N(CC(C)N(C)C)c1ccccc1S2` (centres undefined) [PROPIOMAZINE], the AC50 is over 10 µM on Adenosine receptor A3; over 10 µM in [2]; 0.034 µM at Histamine H1 receptor; 0.12 µM in [7]; over 10 µM in experiment [3]; 0.53 µM at D(3) dopamine receptor. For the same compound, the half-maximal activity concentration (AC50) was over 10 µM in experiment [4], 1.1 µM in experiment [5] and over 10 µM in experiment [6].

Consider `Cc1cn(-c2cc(NC(=O)c3ccc(C)c(Nc4nccc(-c5cnccn5)n4)c3)cc(C(F)(F)F)c2)cn1` [RADOTINIB], for which the half-maximal activity concentration (AC50) is over 30 µM in experiment [1]; 3.3 µM at Adenosine receptor A3; over 30 µM in [2]; over 30 µM at Histamine H1 receptor; over 30 µM in experiment [7]; over 30 µM in [5].

In the case of `CNC(=O)c1cnn(-c2nc(N)c3ncn([C@@H]4O[C@H](CO)[C@@H](O)[C@H]4O)c3n2)c1` [REGADENOSON ANHYDROUS], the activity at Adenosine receptor A3 was half-maximal at 3.7 µM (AC50).

Consider `Cc1ccc(O)c([C@H](CCN(C(C)C)C(C)C)c2ccccc2)c1` [TOLTERODINE], for which the concentration at half-maximal activity (AC50) in experiment [1] was over 30 µM; in experiment [2], over 10 µM; on Cannabinoid receptor 1, over 30 µM; on Histamine H1 receptor, 4.06 µM; in experiment [7], 0.0051 µM; at D(3) dopamine receptor, over 10 µM. The compound further gave an AC50 in [4] of over 10 µM.

Turning to `CC1(C)O[C@@H]2C[C@H]3[C@@H]4CCC5=CC(=O)C=C[C@]5(C)[C@@]4(F)[C@@H](O)C[C@]3(C)[C@]2(C(=O)CO)O1` [TRIAMCINOLONE ACETONIDE], the AC50 (on Adenosine receptor A3; in experiment [2]; on Cannabinoid receptor 1; in experiment [3]; on D(3) dopamine receptor; in experiment [4]) was over 30 µM throughout. Besides, the concentration at half-maximal activity (AC50) in experiment [5] and in experiment [6] was over 30 µM each time.
